# Legend:
# Format in all cases: in vivo
# [1] = system: barnyardgrass (Echinochloa crus-galli, ECHCG); assay: Pre-emerge greenhouse herbicide test; conditions: 250 g ai/ha, 14 days after application, scale 0-100 (0 no damage, 100 complete death)
# In short: (§1)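 Phytotoxicity scored on a 0–100 scale 14 days after treatment (0 = no damage, 100 = complete kill). Acetone solutions sprayed at 15–1000 g ai/ha, 187 l/ha; post-emerge spray included 0.25% v/v surfactant on 2–3 leaf plants, pre-emerge spray hit soil sown 1 day earlier, then watered in.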
# [2] = system: green foxtail (Setaria viridis, SETVI); assay: Pre-emerge greenhouse herbicide test; conditions: 250 g ai/ha, 14 days after application, scale 0-100 (0 no damage, 100 complete death)
# In short: as §1
# [3] = system: ivyleaf morningglory (Ipomoea hederacea, IPOHE); assay: Pre-emerge greenhouse herbicide test; conditions: 250 g ai/ha, 14 days after application, scale 0-100 (0 no damage, 100 complete death)
# In short: as §1
# [4] = system: johnsongrass (Sorghum halepense, SORHA); assay: Pre-emerge greenhouse herbicide test; conditions: 250 g ai/ha, 14 days after application, scale 0-100 (0 no damage, 100 complete death)
# In short: as §1
# [5] = system: lambsquarters (Chenopodium album, CHEAL); assay: Pre-emerge greenhouse herbicide test; conditions: 250 g ai/ha, 14 days after application, scale 0-100 (0 no damage, 100 complete death)
# In short: as §1
# [6] = system: large crabgrass (Digitaria sanguinalis, DIGSA); assay: Pre-emerge greenhouse herbicide test; conditions: 250 g ai/ha, 14 days after application, scale 0-100 (0 no damage, 100 complete death)
# In short: as §1
# [7] = system: redroot pigweed (Amaranthus retroflexus, AMARE); assay: Pre-emerge greenhouse herbicide test; conditions: 250 g ai/ha, 14 days after application, scale 0-100 (0 no damage, 100 complete death)
# In short: as §1
# [8] = system: sicklepod (Cassia obtusifolia, CASOB); assay: Pre-emerge greenhouse herbicide test; conditions: 250 g ai/ha, 14 days after application, scale 0-100 (0 no damage, 100 complete death)
# In short: as §1
# [9] = system: velvetleaf (Abutilon theophrasti, ABUTH); assay: Pre-emerge greenhouse herbicide test; conditions: 250 g ai/ha, 14 days after application, scale 0-100 (0 no damage, 100 complete death)
# In short: as §1
# [10] = system: field corn (Zea mays L., var. Dekalb 527, CORN); assay: Pre-emerge greenhouse crop damage test; conditions: var. Dekalb 527, field corn (Zea mays L.), in vivo, 14 days
# In short: as §1
# [11] = system: soybean (Glycine max L., var. Pella 86, SOY); assay: Pre-emerge greenhouse crop damage test; conditions: var. Pella 86, soybean (Glycine max L.), in vivo, 14 days
# In short: as §1
# [12] = system: upland rice (Ory0a sp., var.Tebonnet, RICE); assay: Pre-emerge greenhouse crop damage test; conditions: var. Tebonnet, upland rice (Ory0a sp.), in vivo, 14 days
# In short: as §1
# [13] = system: barnyardgrass (Echinochloa crus-galli, ECHCG); assay: Post-emerge greenhouse herbicide test; conditions: 250 g ai/ha, 14 days after application
# In short: as §1
# [14] = system: common ragweed (Ambrosia artemisiifolia L., AMBEL); assay: Post-emerge greenhouse herbicide test; conditions: 250 g ai/ha, 14 days after application
# In short: as §1
# [15] = system: green foxtail (Setaria viridis, SETVI); assay: Post-emerge greenhouse herbicide test; conditions: 250 g ai/ha, 14 days after application
# In short: as §1
# [16] = system: ivyleaf morningglory (Ipomoea hederacea, IPOHE); assay: Post-emerge greenhouse herbicide test; conditions: 250 g ai/ha, 14 days after application
# In short: as §1
# [17] = system: johnsongrass (Sorghum halepense, SORHA); assay: Post-emerge greenhouse herbicide test; conditions: 250 g ai/ha, 14 days after application
# In short: as §1
# [18] = system: lambsquarters (Chenopodium album, CHEAL); assay: Post-emerge greenhouse herbicide test; conditions: 250 g ai/ha, 14 days after application
# In short: as §1
# [19] = system: large crabgrass (Digitaria sanguinalis, DIGSA); assay: Post-emerge greenhouse herbicide test; conditions: 250 g ai/ha, 14 days after application
# In short: as §1
# [20] = system: redroot pigweed (Amaranthus retroflexus, AMARE); assay: Post-emerge greenhouse herbicide test; conditions: 250 g ai/ha, 14 days after application
# In short: as §1
# [21] = system: sicklepod (Cassia obtusifolia, CASOB); assay: Post-emerge greenhouse herbicide test; conditions: 250 g ai/ha, 14 days after application
# In short: as §1
# [22] = system: velvetleaf (Abutilon theophrasti, ABUTH); assay: Post-emerge greenhouse herbicide test; conditions: 250 g ai/ha, 14 days after application
# In short: as §1
# [23] = system: field corn (Zea mays L., var. Dekalb 527, CORN); assay: Post-emerge greenhouse crop damage test; conditions: var. Dekalb 527, field corn (Zea mays L.), in vivo, 14 days
# In short: as §1
# [24] = system: soybean (Glycine max L., var. Pella 86, SOY); assay: Post-emerge greenhouse crop damage test; conditions: var. Pella 86, soybean (Glycine max L.), in vivo, 14 days
# In short: as §1
# [25] = system: upland rice (Ory0a sp., var.Tebonnet, RICE); assay: Post-emerge greenhouse crop damage test; conditions: var. Tebonnet, upland rice (Ory0a sp.), in vivo, 14 days
# In short: as §1
Compound,Pre-emerge Herbicidal Activity ECHCG (phytotoxicity rating) [1],Pre-emerge Herbicidal Activity SETVI (phytotoxicity rating) [2],Pre-emerge Herbicidal Activity IPOHE (phytotoxicity rating) [3],Pre-emerge Herbicidal Activity SORHA (phytotoxicity rating) [4],Pre-emerge Herbicidal Activity CHEAL (phytotoxicity rating) [5],Pre-emerge Herbicidal Activity DIGSA (phytotoxicity rating) [6],Pre-emerge Herbicidal Activity AMARE (phytotoxicity rating) [7],Pre-emerge Herbicidal Activity CASOB (phytotoxicity rating) [8],Pre-emerge Herbicidal Activity ABUTH (phytotoxicity rating) [9],Pre-emerge Herbicidal Activity CORN (crop damage rating) [10],Pre-emerge Herbicidal Activity SOY (crop damage rating) [11],Pre-emerge Herbicidal Activity RICE (crop damage rating) [12],Post-emerge Herbicidal Activity ECHCG (phytotoxicity rating 0-100) [13],Post-emerge Herbicidal Activity AMBEL (phytotoxicity rating 0-100) [14],Post-emerge Herbicidal Activity SETVI (phytotoxicity rating 0-100) [15],Post-emerge Herbicidal Activity IPOHE (phytotoxicity rating 0-100) [16],Post-emerge Herbicidal Activity SORHA (phytotoxicity rating 0-100) [17],Post-emerge Herbicidal Activity CHEAL (phytotoxicity rating 0-100) [18],Post-emerge Herbicidal Activity DIGSA (phytotoxicity rating 0-100) [19],Post-emerge Herbicidal Activity AMARE (phytotoxicity rating 0-100) [20],other results
"COC(=O)CC1CNc2c(c(Cl)cc(F)c2-n2c(=O)cc(C(F)(F)F)n(C)c2=O)O1 (centres unmarked) [Compound 2-8, 3-[8-Chloro-6-fluoro-2-(methoxycarbonyl)methyl-3,4-dihydro-2H-1,4-benzoxazin-5-yl]-1-methyl-6-trifluoromethyl-2,4(1H,3H)-pyrimidindione]",60,100,100,100,100,100,100,100,100,70,100,50,80,100,100,100,95,100,50,100,Post-emerge Herbicidal Activity CASOB (phytotoxicity rating 0-100) [21]: 50; Post-emerge Herbicidal Activity ABUTH (phytotoxicity rating 0-100) [22]: 100; Post-emerge crop damage CORN (phytotoxicity rating 0-100) [23]: 70; Post-emerge crop damage SOY (phytotoxicity rating 0-100) [24]: 100; Post-emerge crop damage RICE (phytotoxicity rating 0-100) [25]: 90
"Cc1nc2c(-n3c(=O)cc(C(F)(F)F)n(C)c3=O)c(F)cc(Cl)c2oc1=O [Compound 3-1, 3-(8-Chloro-6-fluoro-3-methyl-2H-1,4-benzoxazin-2-one-5-yl)-1-methyl-6-trifluoromethyl-2,4(1H,3H)-pyrimidindione]",0,20,0,0,100,0,60,0,100,0,0,0,0,20,0,50,0,60,0,70,Post-emerge Herbicidal Activity CASOB (phytotoxicity rating 0-100) [21]: 0; Post-emerge Herbicidal Activity ABUTH (phytotoxicity rating 0-100) [22]: 95; Post-emerge crop damage CORN (phytotoxicity rating 0-100) [23]: 0; Post-emerge crop damage SOY (phytotoxicity rating 0-100) [24]: 30; Post-emerge crop damage RICE (phytotoxicity rating 0-100) [25]: 0

# Reference: patent publication US6573218B1, “Fused-benzene derivatives useful as herbicides” (Ishihara Sangyo Kaisha, Ltd., priority 1998, dated 2003)
